Each structure is given as a SMILES string.

Our source for the RP-LC retention time values is the METLIN SMRT retention time set (Domingo-Almenara et al. 2019).

The nature of the series: gradient 5% acetonitrile 3 min, to 50% in 2 min, to 85% in 15 min, held 3 min, 100 µL/min. Conditions: column: Zorbax Extend-C18 2.1 x 50 mm; eluents: water / acetonitrile, 0.1% formic acid. In short, it runs like this: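 Using water and acetonitrile that each contained 0.1% formic acid, mixtures of ~100 pure standards were separated at 100 μL/min on a Zorbax Extend-C18 column (2.1 × 50 mm, 1.8 μm). The HPLC fed a quadrupole time-of-flight mass spectrometer working in positive and negative ionization mode, with dead and dwell volumes of 40 μL and 900 μL. Data were acquired over 3 months. Retention time was read from computationally picked adduct peaks after manual inspection of each.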
In the case of `Cc1cc(C)c(NC(=O)Cn2nc(N3CCCC(C)C3)c3ccccc3c2=O)c(C)c1` (stereo not drawn), the RP-LC retention time came out at 1180 s.

Turning to `CCN(CCCNC(=O)c1nnc(-c2ccc(S(=O)(=O)N3CCCC3)cc2)o1)c1ccccc1`, the RP-LC retention time worked out at 714 s.

The compound `O=C(Cn1cccc1-c1nc(-c2ccc(Cl)cc2)cs1)N1CCOCC1` showed an RP-LC retention time of 1040 s.

Regarding `O=C(NCc1csc(-c2ccccc2)n1)C1CCN(C(=O)Nc2ccccc2Cl)CC1`, the RP-LC retention time came out at 822 s.

With `CN(C)C(=O)CN1CCN(c2cc(C(=O)O)c3cc(NC(=O)c4ccccc4F)ccc3n2)CC1`, the RP-LC retention time came out at 580 s.

In turn, `CCc1noc(-c2ccc(SCC(=O)N3CCN(c4ccccn4)CC3)nc2)n1` had an RP-LC retention time of 619 s.

Consider `Cc1cc(-n2nnc(C(=O)N3CCC(N4CCCCC4)CC3)c2-c2ccncc2)ccc1F`, for which the RP-LC retention time worked out at 602 s.

`COCc1cn(C2CN(C(=O)c3ccc(OC)nc3)C2)nn1` displayed an RP-LC retention time of 610 s.

`COc1ccc(Cl)cc1NC(=O)N1CCc2nc[nH]c2C1` showed an RP-LC retention time of 604 s.

Compound `O=C(c1ccc2nc[nH]c2c1)N1CCN(c2cc(-c3cccs3)[nH]n2)CC1` had an RP-LC retention time of 594 s.

With `COc1ccc(-c2nnc(-c3cccc(S(=O)(=O)N(C)C)c3)o2)cc1`, the RP-LC retention time was found to be 908 s.

Compound `COc1cccc(N2CC(C(=O)Nc3nnc(SCc4ccccc4)s3)CC2=O)c1` (stereo not drawn) came in with an RP-LC retention time of 820 s.

`COc1ccc(NC(=O)CCc2c(C)nn(-c3cc(N(C)C)ncn3)c2C)cc1OC` had an RP-LC retention time of 697 s.

In turn, `CCOc1ccccc1NC(=O)C1CCN(S(=O)(=O)c2ccc3c(c2)sc(=O)n3CC)CC1` came in with an RP-LC retention time of 922 s.

Turning to `O=C(Cn1cccc1-c1nc(-c2ccccc2)no1)N1CCc2ccccc21`, the RP-LC retention time worked out at 1110 s.

On to `Cc1ccc(-n2c(N3CCCC(C(=O)NCc4ccncc4)C3)nc3ccsc3c2=O)cc1` (stereo not drawn), for which the RP-LC retention time was determined as 627 s.

As for `CNC(=O)c1cn(-c2ccc(-c3nc(C(C)(C)C)no3)cn2)cn1`, the RP-LC retention time came to 806 s.

Take `Cc1cc(N2CCCC2)n2nc(CN3CCCC(C)C3)nc2n1` (stereo not drawn): the RP-LC retention time amounted to 571 s.

`COc1ccc(N2CCN(CCNC(=O)C3CCCN(c4cc(=O)n(C)c(=O)n4C)C3)CC2)cc1` (stereo not drawn) registered an RP-LC retention time of 583 s.

In the case of `COc1ccc(C2CC(=O)N(c3ccc(OC)cc3)C(=O)C2)cc1`, the RP-LC retention time is 864 s.

`Cc1nn(C)c2nc(OC(C)C(=O)Nc3ccccc3F)cc(C(F)(F)F)c12` (stereo not drawn) came in with an RP-LC retention time of 1050 s.

`Cc1ccc(N2CN(CC#N)S(=O)(=O)c3cccnc32)cc1`: the RP-LC retention time worked out at 877 s.

On to `Cc1cc(S(=O)(=O)NCC(c2cccs2)S(=O)(=O)c2ccccc2)ccc1F` (stereo not drawn), for which the RP-LC retention time was determined as 906 s.

The compound `CC(C)OCCCNC(=O)C1CCCN(S(=O)(=O)c2ccc3c(ccn3C)c2)C1` (stereo not drawn) returned an RP-LC retention time of 720 s.

For `Cc1ccc(-n2nc(C)c3sc(N4CCCC(C(=O)NC5CCCc6ccccc65)C4)nc32)cc1` (stereo not drawn), the RP-LC retention time is 1300 s.

Compound `COCCn1c(SCC(=O)Nc2nc3ccccc3s2)nc2c(c1=O)SC(C)C2` (stereo not drawn) came in with an RP-LC retention time of 806 s.

Compound `CS(=O)(=O)N1CCCc2cc(C(=O)NCCCN3CCOCC3)ccc21` registered an RP-LC retention time of 585 s.

In turn, `CCOc1c(Br)cc(C(=O)Nc2ccc(C(=O)O)cc2)cc1C(=O)c1ccc(C)cc1` registered an RP-LC retention time of 1130 s.

For the compound `Cn1cc(-c2cc3n(n2)CCCN3C(=O)CCC(=O)N2CCN(c3ccccn3)CC2)c2ccccc21`, the RP-LC retention time was found to be 621 s.

With `O=C(CC1Sc2ccc(C(F)(F)F)cc2NC1=O)Nc1cccc(Cl)c1Cl` (stereo not drawn), the RP-LC retention time came to 993 s.

`CCOC(=O)c1oc2ccccc2c1NC(=O)C1CCN(S(C)(=O)=O)CC1` gave an RP-LC retention time of 762 s.

Turning to `CC(C)c1nc(NCc2ccc3c(c2)OCO3)ncc1C(=O)O`, the RP-LC retention time worked out at 844 s.

In turn, `CCN(Cc1ccccc1)C(=O)Cn1nc2c(N3CCC(C)CC3)nccn2c1=O` came in with an RP-LC retention time of 861 s.

In the case of `Cc1ccc(S(=O)(=O)c2ccc(N3CCN(c4ccccn4)CC3)nn2)cc1C`, the RP-LC retention time was 657 s.

In the case of `Cc1nc(-c2ccccc2F)sc1C(=O)NC(C)C`, the RP-LC retention time amounted to 888 s.

The compound `COc1ccccc1N1CCN(CCn2c(=O)c3c(c4ccccc4n3C)n(C)c2=O)CC1` showed an RP-LC retention time of 784 s.

Take `COc1cc(Cl)ccc1C(=O)NC1CCN(c2cc(-c3ccc(F)cc3)[nH]n2)C1` (stereo not drawn): the RP-LC retention time was found to be 807 s.

The compound `Cc1c(C(=O)N2CCN(c3ccccn3)CC2)oc2ccc3c(c12)C(=O)CC1(CCCCCC1)O3` gave an RP-LC retention time of 879 s.

As for `O=C(NCc1[nH]nc2ccccc12)c1ccc(Cl)cc1`, the RP-LC retention time came to 779 s.

`CC(C)NC(=O)N1CCC(CCOc2ccccc2F)C1` (stereo not drawn) displayed an RP-LC retention time of 853 s.

Compound `Cc1cccc(S(=O)(=O)N(C)CC2(C)CCOCC2)c1` yielded an RP-LC retention time of 918 s.

Take `COc1ccc2c(c1)CCc1c-2n[nH]c1C(=O)O`: the RP-LC retention time came out at 674 s.

Turning to `COc1ccc(-c2noc(-c3nnn4c3COC(c3ccc(Cl)cc3)C4)n2)c(OC)c1` (stereo not drawn), the RP-LC retention time is 1140 s.

`Cc1nn(-c2ccc(-c3noc(C4CC4)n3)cc2)cc1C(=O)Nc1ccc(F)cc1F` registered an RP-LC retention time of 773 s.

With `COc1ccc2c(c1)C1(CCN(C(=O)C(C)(C)C)C1)C(=O)N2` (stereo not drawn), the RP-LC retention time turned out to be 703 s.

For the compound `O=C(Nc1cc(-c2ccco2)nn1CCO)c1ccc(S(=O)(=O)N2CCOCC2)cc1`, the RP-LC retention time worked out at 622 s.

The compound `CN1CCC([C@@H]2CN(S(=O)(=O)c3ccc(Cl)s3)C[C@H]2C(N)=O)CC1` had an RP-LC retention time of 573 s.

As for `CCCCNC(=O)C1CC(=O)N(CCc2c[nH]c3ccc(C)cc23)C1` (stereo not drawn), the RP-LC retention time is 762 s.

Compound `Cc1nc2nc(-c3ccc(C(C)(C)C)cc3)nn2c(C)c1CC(=O)NC(C)C` gave an RP-LC retention time of 911 s.

As to `O=C(Nc1cccn2cnnc12)c1ccccn1`, the RP-LC retention time was found to be 652 s.

`c1ccc2c(c1)CCN(c1ncnc3c1CCC3)C2`: the RP-LC retention time came out at 650 s.

For the compound `CN(C)S(=O)(=O)c1ccc(-c2nnc(C(=O)NCc3ccc(Cl)cc3)o2)cc1`, the RP-LC retention time came out at 909 s.

As to `c1ccc(OCc2nc(-c3ccc(-n4ccnc4)nc3)no2)cc1`, the RP-LC retention time is 689 s.

In the case of `Cc1csc(-n2nc(C)c(CC(=O)Nc3ccccc3Cl)c2C)n1`, the RP-LC retention time is 1010 s.

In the case of `Cc1cc(N2CCCCC2)n2nc(CN3CCN(c4ccccc4F)CC3)nc2n1`, the RP-LC retention time is 673 s.

Turning to `O=c1ccc(-c2ccccc2Br)nn1Cc1nc(-c2ccc3c(c2)OCO3)no1`, the RP-LC retention time came to 1040 s.

The compound `O=S(=O)(c1ccc(-c2noc(-c3ccccc3Cl)n2)cc1)N1CCOCC1` registered an RP-LC retention time of 1100 s.

Take `COc1ccc(N2C(=O)C3N=NN(Cc4nc(-c5cccc(C)c5)no4)C3C2=O)cc1OC` (stereo not drawn): the RP-LC retention time was found to be 911 s.

`Cc1nc(C#Cc2cccnc2)cs1` came in with an RP-LC retention time of 747 s.

Regarding `Cc1ccc(CC(=O)N2CCc3c(c(C(=O)N4CCCC(C(=O)NC5CC5)C4)nn3C)C2)cc1` (stereo not drawn), the RP-LC retention time was determined as 681 s.

In the case of `COc1ccc2[nH]c(=O)c(CCC(=O)NCCOc3ccccc3OC)cc2c1`, the RP-LC retention time is 681 s.

As to `Cc1ccc(C)c(NC(=O)Cn2ccc3ccn(C)c3c2=O)c1`, the RP-LC retention time is 784 s.

Regarding `COc1ccc(N2C=C(C(=O)N3CCOCC3)S(=O)(=O)c3ccccc32)cc1Cl`, the RP-LC retention time worked out at 789 s.

For the compound `Cc1cc2nn(CC(=O)Nc3ccc(F)c(F)c3)c(=O)n2c(Nc2ccccc2)n1`, the RP-LC retention time turned out to be 967 s.

With `Cc1sc(-c2cc(C(F)(F)F)[nH]n2)cc1S(=O)(=O)N1CCN(c2ccccc2F)CC1`, the RP-LC retention time came to 1170 s.

Turning to `COc1ccc(-c2nc(-c3ccc4c(c3)nc(C)c(=O)n4C(C)C)no2)cc1`, the RP-LC retention time came out at 1160 s.

Compound `COc1ccccc1NC(=O)Cn1ccc2ccc(-c3nnc(C)o3)cc21` displayed an RP-LC retention time of 811 s.

Compound `O=C(Cc1nnc(-c2ccc3ncccc3c2)o1)NCc1ccc(F)cc1` registered an RP-LC retention time of 677 s.

Compound `COc1cc2c(cc1OC)C(C(=O)NCc1ccccn1)C1c3ccccc3CCN1C2=O` (stereo not drawn) displayed an RP-LC retention time of 616 s.

Compound `CCc1ccc2[nH]c3c(c(=O)c2c1)CN(CC(=O)Nc1cc(OC)cc(OC)c1)CC3` registered an RP-LC retention time of 642 s.

Consider `Cc1ccc(-c2nccn3cc(C(=O)NCc4ccncc4)nc23)cc1`, for which the RP-LC retention time was found to be 633 s.

`Cc1ccccc1-c1noc(-c2nn(-c3cccc(F)c3)ccc2=O)n1` returned an RP-LC retention time of 941 s.

Compound `O=C(Cc1ccsc1)N1CCc2nn(CC3CC3)c(=O)n2CC1` registered an RP-LC retention time of 674 s.

As to `COc1ccc(-c2cc3c(=O)n(CC(=O)Nc4ccc(C)c(F)c4)ccn3n2)cc1OC`, the RP-LC retention time was 780 s.

For the compound `Cc1oc2ccn(Cc3cccc(F)c3)c(=O)c2c1C(=O)NCc1ccc(F)cc1F`, the RP-LC retention time was 954 s.

Compound `O=C(NCc1ccccc1Cl)C1CC(=O)N(CCc2c[nH]c3ccc(F)cc23)C1` (stereo not drawn) returned an RP-LC retention time of 811 s.

The compound `O=C(Nc1ccc(N2CCCN(C(=O)C3CC3)CC2)cc1)c1cc(-c2ccc(F)cc2)n[nH]1` had an RP-LC retention time of 730 s.

For the compound `O=C(CCCn1c(=O)c2cccn2c2ccccc21)NCc1ccccn1`, the RP-LC retention time turned out to be 621 s.
